This passage reports mass density results from the NIST ThermoML archive (doi:10.1021/acs.jced.9b00422).

± gives the expanded uncertainty stated by the source.

The nature of the series: wn = mass fraction of the nth substance listed. The settings on record: 323 K, 101.3 kPa, Liquid, Pycnometric method.

Take `[Ca+2].[Cl-].[Cl-]` [calcium chloride] + O: the mass density (w1 = 0.568) amounted to 1538.2 ± 6.6 kg/m3.
Consider `[Cl-].[Na+]` [sodium chloride] + O, for which, under “w1 = 0.2722”, the mass density came out at 1175 ± 2.4 kg/m3.
For `[Cl-].[Cl-].[Zn+2]` [zinc chloride] + O, where the note is “w1 = 0.8225”, the mass density was 2274.8 ± 7 kg/m3.

As usually defined, the mass density is the mass of a sample divided by its volume.
